Assay results published in patent US20170275298A1, “INHIBITORS OF THE RENAL OUTER MEDULLARY POTASSIUM CHANNEL” (Merck Sharp & Dohme Corp., priority 2014, published 2017).

Target: T1, hROMK (hKir1.1) (Homo sapiens, UniProt P48048)
T1 construct: expressed in transfected cells
T1 sequence (P48048 1-391): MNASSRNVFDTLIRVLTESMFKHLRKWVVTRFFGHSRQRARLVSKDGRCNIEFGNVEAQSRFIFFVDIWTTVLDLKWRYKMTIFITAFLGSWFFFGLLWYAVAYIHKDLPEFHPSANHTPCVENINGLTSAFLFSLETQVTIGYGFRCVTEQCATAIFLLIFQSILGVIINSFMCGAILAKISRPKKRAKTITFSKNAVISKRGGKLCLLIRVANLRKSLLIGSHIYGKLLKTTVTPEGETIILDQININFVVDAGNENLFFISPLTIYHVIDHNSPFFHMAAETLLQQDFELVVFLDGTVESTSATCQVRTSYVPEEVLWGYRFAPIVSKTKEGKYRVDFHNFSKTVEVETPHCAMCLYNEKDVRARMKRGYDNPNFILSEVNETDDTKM
Experiment: Thallium Flux Assay (ROMK channel functional thallium flux assay)
Format: cell-based
Conditions: HEK293 cells stably expressing hROMK (hKir1.1); FluxOR thallium flux, FLIPR-Tetra, 30 min compound incubation; read-out: ROMK TI IC50
How it was run: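 HEK293 cells stably expressing hROMK (hKir1.1) loaded with FluxOR dye 90 min at ambient temperature, then compound 30 min before thallium/potassium stimulant (final 3 mM Tl/0.3 mM K). ROMK-sensitive flux defined by 3 μM standard inhibitor; data as % fluorescence change.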

SMILES	IC50
Cc1c([C@@H](O)CN2CCC3(CC2)CCN(c2cnc(Cl)cn2)CC3)ccc2c1COC2=O [Example 132, (R)-5-(2-(9-(5-chloropyrazin-2-yl)-3,9-diazaspiro[5.5]undecan-3-yl)-1-hydroxyethyl)-4-methylisobenzofuran-1(3H)-one]	22.8 nM
Cc1c([C@@H](O)CN2CCC3(CC2)CCN(c2nccnc2Cl)CC3)ccc2c1COC2=O [Example 133, (R)-5-(2-(9-(3-chloropyrazin-2-yl)-3,9-diazaspiro[5.5]undecan-3-yl)-1-hydroxyethyl)-4-methylisobenzofuran-1(3H)-one]	274 nM
O[C@@H](CN1CCC2(CC1)CCN(c1cncc(Cl)n1)CC2)c1ccc(-n2cnnn2)nc1 [Example 134, (R)-1-(6-(1H-tetrazol-1-yl)pyridin-3-yl)-2-(9-(6-chloropyrazin-2-yl)-3,9-diazaspiro[5.5]undecan-3-yl)ethanol]	747 nM
O[C@@H](CN1CCC2(CC1)CCN(c1cnc(Cl)cn1)CC2)c1ccc(-n2cnnn2)nc1 [Example 135, (R)-1-(6-(1H-tetrazol-1-yl)pyridin-3-yl)-2-(9-(5-chloropyrazin-2-yl)-3,9-diazaspiro[5.5]undecan-3-yl)ethanol]	875 nM
Cc1c([C@@H](O)CN2CCC3(CC2)CCN(c2ncccn2)CC3)ccc2c1COC2=O [Example 136, (R)-5-(1-hydroxy-2-(9-(pyrimidin-2-yl)-3,9-diazaspiro[5.5]undecan-3-yl)ethyl)-4-methylisobenzofuran-1(3H)-one]	330 nM
Cc1c([C@@H](O)CN2CCC3(CC2)CCN(c2nccs2)CC3)ccc2c1COC2=O [Example 137, (R)-5-(1-hydroxy-2-(9-(thiazol-2-yl)-3,9-diazaspiro[5.5]undecan-3-yl)ethyl)-4-methylisobenzofuran-1(3H)-one]	283 nM
O[C@@H](CN1CCC2(CC1)CCN(c1cc(Cl)cnn1)CC2)c1ccc(-n2cnnn2)nc1 [Example 138, (R)-1-(6-(1H-tetrazol-1-yl)pyridin-3-yl)-2-(9-(5-chloropyridazin-3-yl)-3,9-diazaspiro[5.5]undecan-3-yl)ethanol]	387 nM
Cc1c([C@@H](O)CN2CCC3(CC2)CCN(c2cccnn2)CC3)ccc2c1COC2=O [Example 139, (R)-5-(1-hydroxy-2-(9-(pyridazin-3-yl)-3,9-diazaspiro[5.5]undecan-3-yl)ethyl)-4-methylisobenzofuran-1(3H)-one]	251 nM
COC(=O)c1csc(N2CCC3(CCN(C[C@H](O)c4ccc5c(c4C)COC5=O)CC3)CC2)n1 [Example 140, (R)-methyl 2-(9-(2-hydroxy-2-(4-methyl-1-oxo-1,3-dihydroisobenzofuran-5-yl)ethyl)-3,9-diazaspiro[5.5]undecan-3-yl)thiazole-4-carboxylate]	364 nM
COc1cnc(N2CCC3(CCN(C[C@H](O)c4ccc5c(c4C)COC5=O)CC3)CC2)cn1 [Example 141, (R)-5-(1-hydroxy-2-(9-(5-methoxypyrazin-2-yl)-3,9-diazaspiro[5.5]undecan-3-yl)ethyl)-4-methylisobenzofuran-1(3H)-one]	350 nM
Cc1c([C@@H](O)CN2CCC3(CC2)CCN(c2ccnnc2)CC3)ccc2c1COC2=O [Example 142, (R)-5-(1-hydroxy-2-(9-(pyridazin-4-yl)-3,9-diazaspiro[5.5]undecan-3-yl)ethyl)-4-methylisobenzofuran-1(3H)-one]	170 nM
